Legend:
Type in all cases: functional
Staphylococcus aureus [1] = assay: Synergistic antimicrobial activity against methicillin resistant Staphylococcus aureus 43300 assessed as fractional inhibitory concentration index incubated for 24 hrs in presence of Oxacillin by checkerboard assay
Staphylococcus aureus [2] = assay: Synergistic antimicrobial activity against methicillin resistant Staphylococcus aureus assessed as fractional inhibitory concentration index incubated for 24 hrs in presence of Oxacillin by checkerboard assay
Staphylococcus aureus [3] = assay: Synergistic antimicrobial activity against methicillin resistant Staphylococcus aureus assessed as fractional inhibitory concentration index incubated for 24 hrs in presence of amikacin by checkerboard assay
Staphylococcus aureus [4] = assay: Synergistic antimicrobial activity against methicillin-resistant Staphylococcus aureus assessed as fractional inhibitory concentration index in presence of gentamicin by checkerboard assay
Staphylococcus aureus [5] = assay: Synergistic antibacterial activity against methicillin-resistant Staphylococcus aureus assessed as fractional inhibitory concentration index incubated for 24 hrs in presence of vancomycin by checkerboard assay
Staphylococcus aureus [6] = assay: Synergistic antimicrobial activity against methicillin-resistant Staphylococcus aureus assessed as fractional inhibitory concentration index incubated for 24 hrs in presence of ampicillin by checkerboard assay
Staphylococcus aureus [7] = assay: Synergistic antimicrobial activity against methicillin resistant Staphylococcus aureus assessed as fractional inhibitory concentration index incubated for 24 hrs in presence of sulbactam by checkerboard assay
Staphylococcus aureus [8] = assay: Synergistic antimicrobial activity against methicillin resistant Staphylococcus aureus assessed as fractional inhibitory concentration index incubated for 24 hrs in presence of oxytetracycline by checkerboard assay
Staphylococcus aureus [9] = assay: Synergistic antimicrobial activity against methicillin-resistant Staphylococcus aureus CCARM 3089 assessed as fractional inhibitory concentration index in presence of oxacillin incubated for 24 hrs by checkerboard assay
Staphylococcus aureus [10] = assay: Synergistic antibacterial activity against methicillin resistant Staphylococcus aureus assessed as fractional inhibitory concentration index in presence of norfloxacin; details: time 24 hrs
Staphylococcus aureus [11] = assay: Synergistic antimicrobial activity against methicillin resistant Staphylococcus aureus assessed as fractional inhibitory concentration index incubated for 24 hrs in presence of Fosfomycin by checkerboard assay
Staphylococcus aureus [12] = assay: Synergistic antibacterial activity against methicillin resistant Staphylococcus aureus assessed as fractional inhibitory concentration index in presence of oxacillin incubated for 24 hrs by checkerboard assay
Staphylococcus aureus [13] = assay: Synergistic antibacterial activity against methicillin resistant Staphylococcus aureus assessed as fractional inhibitory concentration index in presence of kanamycin incubated for 24 hrs by checkerboard assay
Staphylococcus aureus [14] = assay: Synergistic antimicrobial activity against methicillin resistant Staphylococcus aureus 43300 assessed as fractional inhibitory concentration index incubated for 24 hrs in presence of cefotaxime by checkerboard assay
Staphylococcus aureus [15] = assay: Synergistic antimicrobial activity against methicillin resistant Staphylococcus aureus 43300 assessed as fractional inhibitory concentration index incubated for 24 hrs in presence of imipenem by checkerboard assay
Staphylococcus aureus [16] = assay: Synergistic antimicrobial activity against methicillin resistant Staphylococcus aureus 43300 assessed as fractional inhibitory concentration index incubated for 24 hrs in presence of Cefuroxime by checkerboard assay
Staphylococcus aureus [17] = assay: Synergistic antibacterial activity against methicillin resistant Staphylococcus aureus assessed as fractional inhibitory concentration index in presence of ampicillin
Staphylococcus aureus [18] = assay: Synergistic antibacterial activity against methicillin resistant Staphylococcus aureus assessed as fractional inhibitory concentration index in presence of ciprofloxacin
Staphylococcus aureus [19] = assay: Synergistic antimicrobial activity against methicillin resistant Staphylococcus aureus 43300 assessed as fractional inhibitory concentration index incubated for 24 hrs in presence of Gentamicin by checkerboard assay
Staphylococcus aureus [20] = assay: Synergistic antibacterial activity against methicillin-resistant Staphylococcus aureus assessed as fractional inhibitory concentration index in presence of cefoxitin

SMILES: COc1ccc2c(c[n+](C)c3c4cc5c(cc4ccc23)OCO5)c1OC.[Cl-] [CHELERYTHRINE CHLORIDE]
- fractional inhibitory concentration index (FICI) (Staphylococcus aureus [1]): 0.5

SMILES: O=C/C=C/c1ccccc1 [CINNAMALDEHYDE]
- fractional inhibitory concentration index (FICI) (Staphylococcus aureus [2]): 0.25
- fractional inhibitory concentration index (FICI) (Staphylococcus aureus [3]): 0.19
- fractional inhibitory concentration index (FICI) (Staphylococcus aureus [4]): 0.37
- fractional inhibitory concentration index (FICI) (Staphylococcus aureus [5]): 0.25

SMILES: C[C@H]1COC2=C1C(=O)C(=O)c1c2ccc2c1CCCC2(C)C [CRYPTOTANSHINONE]
- fractional inhibitory concentration index (FICI) (Staphylococcus aureus [2]): 0.312
- fractional inhibitory concentration index (FICI) (Staphylococcus aureus [5]): 0.37

SMILES: O=C(O[C@@H]1Cc2c(O)cc(O)cc2O[C@@H]1c1cc(O)c(O)c(O)c1)c1cc(O)c(O)c(O)c1 [EPIGALOCATECHIN GALLATE]
- fractional inhibitory concentration index (FICI) (Staphylococcus aureus [6]): 0.19
- fractional inhibitory concentration index (FICI) (Staphylococcus aureus [7]): 0.19
- fractional inhibitory concentration index (FICI) (Staphylococcus aureus [8]): 0.288

SMILES: O=C(O[C@@H]1O[C@@H]2COC(=O)c3cc(O)c(O)c(O)c3-c3c(cc(O)c(O)c3O)C(=O)O[C@H]2[C@H](OC(=O)c2cc(O)c(O)c(O)c2)[C@H]1OC(=O)c1cc(O)c(O)c(O)c1)c1cc(O)c(O)c(O)c1 [EUGENIIN]
- fractional inhibitory concentration index (FICI) (Staphylococcus aureus [9]): 0.395

SMILES: O=c1c(-c2ccc(O)cc2)coc2cc(O)cc(O)c12 [GENISTEIN]
- fractional inhibitory concentration index (FICI) (Staphylococcus aureus [10]): 0.38

SMILES: C=CCc1ccc(O)c(-c2ccc(O)c(CC=C)c2)c1 [HONOKIOL]
- fractional inhibitory concentration index (FICI) (Staphylococcus aureus [11]): <0.5
- fractional inhibitory concentration index (FICI) (Staphylococcus aureus [3]): <0.5

SMILES: CC(C)=CCc1c(-c2ccc(O)cc2O)oc2c(CC=C(C)C)c(O)cc(O)c2c1=O [KUWANON C]
- fractional inhibitory concentration index (FICI) (Staphylococcus aureus [12]): 0.5
- fractional inhibitory concentration index (FICI) (Staphylococcus aureus [13]): 0.375

SMILES: CC(C)=CCC/C(C)=C/Cc1cc(C2CC(=O)c3c(O)cc(O)cc3O2)c(O)cc1O (centres undefined) [KUWANON E]
- fractional inhibitory concentration index (FICI) (Staphylococcus aureus [13]): 0.5

SMILES: C=CCc1ccc(O)c(-c2cc(CC=C)ccc2O)c1 [MAGNOLOL]
- fractional inhibitory concentration index (FICI) (Staphylococcus aureus [11]): <0.5

SMILES: CC(C)=CCc1c(-c2ccc(O)cc2O)oc2c3c(cc(O)c2c1=O)OC(C)(C)C=C3 [MORUSIN]
- fractional inhibitory concentration index (FICI) (Staphylococcus aureus [12]): 0.375
- fractional inhibitory concentration index (FICI) (Staphylococcus aureus [13]): 0.5

SMILES: O=C1C=CC(=O)c2ccccc21 [NAPHTHOQUINONE]
- fractional inhibitory concentration index (FICI) (Staphylococcus aureus [14]): 0.062
- fractional inhibitory concentration index (FICI) (Staphylococcus aureus [15]): 0.5
- fractional inhibitory concentration index (FICI) (Staphylococcus aureus [16]): 0.06

SMILES: CC1(C)CC[C@]2(C(=O)O)CC[C@]3(C)C(=CC[C@@H]4[C@@]5(C)CC[C@H](O)C(C)(C)[C@@H]5CC[C@]43C)[C@@H]2C1 [OLEANOLIC_ACID]
- fractional inhibitory concentration index (FICI) (Staphylococcus aureus [2]): <0.5
- fractional inhibitory concentration index (FICI) (Staphylococcus aureus [17]): <0.5

SMILES: Oc1cc(O)cc(/C=C/c2ccc(O)cc2O)c1 [OXYRESVERATROL]
- fractional inhibitory concentration index (FICI) (Staphylococcus aureus [18]): 0.37
- fractional inhibitory concentration index (FICI) (Staphylococcus aureus [5]): 0.37

SMILES: O=C(/C=C/C=C/c1ccc2c(c1)OCO2)N1CCCCC1 [PIPERINE]
- fractional inhibitory concentration index (FICI) (Staphylococcus aureus [19]): 0.5

SMILES: O=C(O)c1cc(O)c2c(c1)C(=O)c1cccc(O)c1C2=O [RHEIN]
- fractional inhibitory concentration index (FICI) (Staphylococcus aureus [2]): 0.37

SMILES: CC(C)=CC[C@@H](O)C1=CC(=O)c2c(O)ccc(O)c2C1=O [SHIKONIN]
- fractional inhibitory concentration index (FICI) (Staphylococcus aureus [3]): 0.37
- fractional inhibitory concentration index (FICI) (Staphylococcus aureus [4]): 0.5
- fractional inhibitory concentration index (FICI) (Staphylococcus aureus [20]): 0.57

SMILES: C[C@H]1[C@H](C)CC[C@]2(C(=O)O)CC[C@]3(C)C(=CC[C@@H]4[C@@]5(C)CC[C@H](O)C(C)(C)[C@@H]5CC[C@]43C)[C@H]12 [URSOLIC ACID]
- fractional inhibitory concentration index (FICI) (Staphylococcus aureus [2]): <0.5
- fractional inhibitory concentration index (FICI) (Staphylococcus aureus [17]): <0.5

From ChEMBL document CHEMBL6153028, “Understanding the synergistic sensitization of natural products and antibiotics: An effective strategy to combat MRSA” (2025)
